Measured values: ChEMBL document CHEMBL4330140, “Novel human adenosine receptor antagonists based on the 7-amino-thiazolo[5,4-d]pyrimidine scaffold. Structural investigations at the 2-, 5- and 7-positions to enhance affinity and tune selectivity” (Bioorg Med Chem Lett, 2019)

Columns and labels:
[1] = target: T1, Adenosine receptor A2a (Homo sapiens, UniProt P29274); experiment: Displacement of [3H]NECA from human adenosine A2A receptor expressed in CHO cells after 3 hrs by scintillation counting method; assay type: cell-based
T1 sequence (P29274 whole entry): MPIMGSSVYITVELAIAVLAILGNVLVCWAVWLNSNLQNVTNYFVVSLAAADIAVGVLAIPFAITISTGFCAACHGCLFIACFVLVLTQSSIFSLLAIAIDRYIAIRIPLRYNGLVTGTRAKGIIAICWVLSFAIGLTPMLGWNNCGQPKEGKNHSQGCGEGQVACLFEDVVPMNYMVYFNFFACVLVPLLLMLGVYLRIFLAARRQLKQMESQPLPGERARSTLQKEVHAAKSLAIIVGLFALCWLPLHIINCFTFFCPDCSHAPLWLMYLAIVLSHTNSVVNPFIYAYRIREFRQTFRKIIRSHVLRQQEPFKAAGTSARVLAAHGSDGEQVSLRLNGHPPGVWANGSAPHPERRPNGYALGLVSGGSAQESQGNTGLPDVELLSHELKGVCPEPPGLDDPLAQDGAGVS

[2] = target: T2, Adenosine receptor A1 (Homo sapiens, UniProt P30542); experiment: Displacement of [3H]CCPA from human adenosine A1 receptor expressed in CHO cells after 3 hrs by scintillation counting method; assay type: cell-based
T2 sequence (P30542 whole entry): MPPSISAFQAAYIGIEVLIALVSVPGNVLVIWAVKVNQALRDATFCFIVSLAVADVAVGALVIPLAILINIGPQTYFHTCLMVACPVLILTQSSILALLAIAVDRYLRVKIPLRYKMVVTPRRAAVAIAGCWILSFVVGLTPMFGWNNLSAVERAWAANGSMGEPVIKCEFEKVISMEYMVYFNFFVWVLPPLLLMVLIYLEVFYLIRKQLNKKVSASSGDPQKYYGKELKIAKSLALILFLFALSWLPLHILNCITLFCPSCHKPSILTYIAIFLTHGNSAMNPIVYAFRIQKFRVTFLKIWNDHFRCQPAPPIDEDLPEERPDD

[3] = target: T3, Adenosine receptor A2b (Homo sapiens, UniProt P29275); experiment: Antagonist activity at human adenosine A2B receptor expressed in CHO cells assessed as inhibition of NECA-induced increase in cAMP accumulation preincubated for 10 mins followed by NECA addition by GloSensor cAMP assay; assay type: functional, cell-based
T3 sequence (P29275 whole entry): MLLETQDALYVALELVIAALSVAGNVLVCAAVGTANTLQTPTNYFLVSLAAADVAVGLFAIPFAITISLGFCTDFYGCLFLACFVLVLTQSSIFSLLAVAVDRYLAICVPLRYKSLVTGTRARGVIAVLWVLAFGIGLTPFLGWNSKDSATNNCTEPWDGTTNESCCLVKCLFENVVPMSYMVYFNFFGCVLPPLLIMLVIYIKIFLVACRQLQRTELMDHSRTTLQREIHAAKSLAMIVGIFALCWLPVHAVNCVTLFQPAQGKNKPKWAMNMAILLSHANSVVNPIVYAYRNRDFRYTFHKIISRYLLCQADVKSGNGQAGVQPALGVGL

[4] = species: Homo sapiens; experiment: Selectivity ratio of Ki for displacement of [3H]HEMADO from human adenosine A3 receptor expressed in CHO cells to Ki for displacement of [3H]NECA from human adenosine A2A receptor expressed in CHO cells; assay type: cell-based
[5] = target: T4, Adenosine receptor A3 (Homo sapiens, UniProt P0DMS8); experiment: Displacement of [3H]HEMADO from human adenosine A3 receptor expressed in CHO cells after 3 hrs by scintillation counting method; assay type: cell-based
T4 sequence (P0DMS8 whole entry): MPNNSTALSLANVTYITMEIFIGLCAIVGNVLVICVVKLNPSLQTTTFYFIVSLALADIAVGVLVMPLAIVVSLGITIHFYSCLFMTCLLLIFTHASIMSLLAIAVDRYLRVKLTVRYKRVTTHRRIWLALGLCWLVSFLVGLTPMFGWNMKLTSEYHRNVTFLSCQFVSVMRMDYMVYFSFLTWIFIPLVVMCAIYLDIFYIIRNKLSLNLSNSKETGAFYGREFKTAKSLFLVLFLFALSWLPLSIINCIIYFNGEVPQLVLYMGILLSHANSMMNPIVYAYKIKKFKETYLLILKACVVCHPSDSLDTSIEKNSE

[6] = species: Homo sapiens; experiment: Selectivity ratio of Ki for displacement of [3H]CCPA from human adenosine A1 receptor expressed in CHO cells to Ki for displacement of [3H]NECA from human adenosine A2A receptor expressed in CHO cells; assay type: cell-based
[7] = species: Homo sapiens; experiment: Selectivity ratio of Ki for [3H]NECA from human adenosine A2A receptor expressed in CHO cells to Ki for displacement of [3H]HEMADO from human adenosine A3 receptor expressed in CHO cells; assay type: cell-based
[8] = target: Adenosine receptors; A1 & A3 (Homo sapiens) (UniProt P30542+P0DMS8); experiment: Selectivity ratio of Ki for displacement of [3H]CCPA from human adenosine A1 receptor expressed in CHO cells to Ki for displacement of [3H]HEMADO from human adenosine A3 receptor expressed in CHO cells; assay type: cell-based
[9] = target: T1, Adenosine receptor A2a; experiment: Antagonist activity at human adenosine A2A receptor expressed in CHO cells assessed as inhibition of NECA-induced increase in cAMP accumulation preincubated for 10 mins followed by NECA addition by GloSensor cAMP assay; assay type: functional, cell-based

| SMILES | Ki [1] | Ki [2] | IC50 [3] | Ki [5] | Ratio Ki [8] | IC50 [9] | Ratio Ki [4] | Ratio Ki [6] | Ratio Ki [7] |
| --- | --- | --- | --- | --- | --- | --- | --- | --- | --- |
| Cc1ccc(-c2nc(N)c3nc(-c4ccco4)sc3n2)o1 | 2.36 nM | 45.9 nM | > 30000 nM | 13.8 nM | – | – | 5.8 | 19.4 | – |
| COc1cccc(-c2nc(N)c3nc(-c4ccco4)sc3n2)c1 | 1.9 nM | 62.3 nM | > 30000 nM | 4.9 nM | – | – | 2.6 | 32.8 | – |
| COc1cccc(-c2nc(N)c3nc(-c4ccccc4)sc3n2)c1 | 110 nM | 176 nM | > 30000 nM | 35.6 nM | – | – | 0.3 | 1.6 | – |
| Nc1nc(-c2ccc(CO)cc2)nc2sc(-c3ccco3)nc12 | 7.7 nM | 77.7 nM | > 30000 nM | 3.58 nM | – | – | 0.5 | 10.1 | – |
| Cc1nc(NC(=O)c2ccc(Cl)cc2)c2nc(-c3ccccc3)sc2n1 | > 30000 nM | > 30000 nM | > 30000 nM | > 30000 nM | – | – | – | – | – |
| Nc1nc(-c2cccc(CO)c2)nc2sc(-c3ccco3)nc12 | 2.1 nM | 28 nM | > 30000 nM | 0.9 nM | – | – | 0.4 | 13 | – |
| Cc1nc(NC(=O)c2ccccc2)c2nc(-c3ccccc3)sc2n1 | 1950 nM | 935 nM | > 30000 nM | 691 nM | 1.3 | – | – | – | 2.8 |
| COc1ccc(-c2nc(N)c3nc(-c4ccccc4)sc3n2)cc1 | 115 nM | 225 nM | > 30000 nM | 46.7 nM | – | – | 0.4 | 1.9 | – |
| N#Cc1cccc(-c2nc(N)c3nc(-c4ccccc4)sc3n2)c1 | 33.6 nM | 594 nM | > 30000 nM | 247 nM | – | – | 7.3 | 17.7 | – |
| Nc1nc(-c2ccco2)nc2sc(-c3ccccc3)nc12 | 1.7 nM | 67 nM | > 30000 nM | 2.8 nM | – | 163 nM | 1.6 | 39.4 | – |
| Nc1nc(-c2cccc(CO)c2)nc2sc(-c3ccccc3)nc12 | 53 nM | 32 nM | > 30000 nM | 3.7 nM | – | – | 0.07 | 0.6 | – |

Now from value to molecule, other results behind:

| Ki [1] | Ki [2] | IC50 [3] | Ki [5] | Ratio Ki [8] | IC50 [9] | SMILES | Ratio Ki [4] | Ratio Ki [6] | Ratio Ki [7] |
| --- | --- | --- | --- | --- | --- | --- | --- | --- | --- |
| 1140 nM | > 30000 nM | > 30000 nM | 32 nM | > 900 | – | O=C(Nc1nc(-c2ccccc2)nc2sc(-c3ccco3)nc12)c1ccccc1 | – | – | 35.7 |
| 82 nM | 82 nM | > 30000 nM | 8.2 nM | – | – | Nc1nc(-c2ccc(CO)cc2)nc2sc(-c3ccccc3)nc12 | 0.1 | 1 | – |
| 248 nM | 34 nM | > 30000 nM | 2660 nM | 0.01 | – | Cc1nc(N)c2nc(-c3ccccc3)sc2n1 | 10.7 | 0.14 | 0.09 |
| 1.64 nM | 51 nM | > 30000 nM | 15.7 nM | – | 764 nM | Nc1nc(-c2cccc(O)c2)nc2sc(-c3ccco3)nc12 | 9.6 | 31.1 | – |
| 7.7 nM | 103 nM | > 30000 nM | 61.5 nM | – | – | N#Cc1cccc(-c2nc(N)c3nc(-c4ccco4)sc3n2)c1 | 8 | 13.3 | – |
| 5 nM | 58.5 nM | > 30000 nM | 190 nM | – | 627 nM | Nc1nc(-c2cccc(O)c2)nc2sc(-c3ccccc3)nc12 | 38 | 11.7 | – |
| 104 nM | 1470 nM | > 30000 nM | 1200 nM | 1.2 | – | O=C(Nc1nc(-c2ccccc2)nc2sc(-c3ccccc3)nc12)c1ccccc1 | – | – | 0.08 |
| 22.4 nM | 28.9 nM | > 30000 nM | 24.9 nM | – | – | Cc1ccc(-c2nc(N)c3nc(-c4ccccc4)sc3n2)o1 | 1.1 | 1.3 | – |
| 3 nM | 33 nM | > 30000 nM | 15 nM | 2.2 | – | Nc1nc(-c2ccccc2)nc2sc(-c3ccco3)nc12 | 5 | 11 | 0.2 |
| 19 nM | 148 nM | > 30000 nM | 84 nM | 1.76 | – | Nc1nc(-c2ccccc2)nc2sc(-c3ccccc3)nc12 | 4.4 | 7.8 | 0.22 |
| 428 nM | 265 nM | > 30000 nM | 4 nM | 66.2 | – | O=C(Nc1nc(-c2ccccc2)nc2sc(-c3ccco3)nc12)c1ccco1 | – | – | 107 |
| 3.4 nM | 69 nM | > 30000 nM | 99 nM | – | 301 nM | Nc1nc(-c2ccco2)nc2sc(-c3ccco3)nc12 | 29.1 | 20.3 | – |
| 3980 nM | 2280 nM | > 30000 nM | 48 nM | 47.4 | – | O=C(Nc1nc(-c2ccccc2)nc2sc(-c3ccccc3)nc12)c1ccco1 | – | – | 83 |
| > 30000 nM | 1460 nM | > 30000 nM | 91 nM | 16 | – | COc1ccc(C(=O)Nc2nc(C)nc3sc(-c4ccccc4)nc23)cc1 | – | – | > 300 |
| 11.2 nM | 47.7 nM | > 30000 nM | 4.66 nM | – | – | COc1ccc(-c2nc(N)c3nc(-c4ccco4)sc3n2)cc1 | 0.4 | 4.2 | – |
